Ki data for three compounds are collected here from patent US7449462B2, “Triazole derivatives which inhibit vasopressin antagonistic activity” (Pfizer, Inc., priority 2004, dated 2008).

This test concerns the target T1, human V1A receptor (Homo sapiens, UniProt P37288).
T1 construct: expressed in transfected cells; host or cells: CHO cells (CHO-hV1A line provided by Marc Thibonnier, Case Western Reserve University)
Description: V1A filter binding assay (screen 1.0), [3H]-AVP binding to CHO-hV1A membranes. The settings on record: [3H]-AVP displacement, membranes of CHO cells stably expressing the human V1A receptor; Cheng-Prusoff. As to the method: 1.0 V1A Filter Binding Assay
Receptor binding assays were performed on cellular membranes prepared from CHO cells stably expressing the human V1A receptor, (CHO-hV1A). The CHO-hV1A cell line was kindly provided under a licensing agreement by Marc Thibonnier, Dept. of Medicine, Case Western Reserve University School of Medicine, Cleveland, Ohio. CHO-hV1A cells were routinely maintained at 37° C. in humidified atmosphere with 5% CO2 in DMEM/Hams F12 nutrient mix supplemented with 10% fetal bovine serum, 2 mM L-glutamine, 15 mM HEPES and 400 μg/ml G418. […] Confluent CHO-hV1A cells were washed with phosphate-buffered saline (PBS), harvested into ice cold PBS and centrifuged at 1,000 rpm. Cell pellets were stored at −80° C. until use. Cell pellets were thawed on ice and homogenised in membrane preparation buffer consisting of 50 mM Tris-HCl, pH 7.4, 5 mM MgCl2 and supplemented with a protease inhibitor cocktail, (Roche). […] The remaining pellet was homogenised and centrifuged as before. The supernatants were pooled and centrifuged at 25,000×g for 30 min at 4° C. The pellet was resuspended in freezing buffer consisting of 50 mM Tris-HCl, pH 7.4, 5 mM MgCl2 and 20% glycerol and stored in small aliquots at −80° C. until use. Protein concentration was determined using Bradford reagent and BSA as a standard. […]
Compounds were tested for their effects on [^3H]-AVP binding to CHO-hV1A membranes, (^3H-AVP; specific activity 65.5 Ci/mmol; NEN Life Sciences). […] The plates were sealed and counted on a TopCount Microplate Scintillation Counter (Packard Instruments). […] The radioligand binding data was analysed using a four parameter logistic equation with the min forced to 0%. […] Specific binding was calculated by subtracting the mean NSB cpm from the mean Total cpm. […] The inhibitory dissociation constant (Ki) was calculated using the Cheng-Prusoff equation: Ki=IC50/(1+[L]/Kd) where [L] is the concentration of ligand present in the well and Kd is the dissociation constant of the radioligand obtained from Scatchard plot analysis.

pKi: −log10 of the molar value.

T1 sequence (P37288 whole entry): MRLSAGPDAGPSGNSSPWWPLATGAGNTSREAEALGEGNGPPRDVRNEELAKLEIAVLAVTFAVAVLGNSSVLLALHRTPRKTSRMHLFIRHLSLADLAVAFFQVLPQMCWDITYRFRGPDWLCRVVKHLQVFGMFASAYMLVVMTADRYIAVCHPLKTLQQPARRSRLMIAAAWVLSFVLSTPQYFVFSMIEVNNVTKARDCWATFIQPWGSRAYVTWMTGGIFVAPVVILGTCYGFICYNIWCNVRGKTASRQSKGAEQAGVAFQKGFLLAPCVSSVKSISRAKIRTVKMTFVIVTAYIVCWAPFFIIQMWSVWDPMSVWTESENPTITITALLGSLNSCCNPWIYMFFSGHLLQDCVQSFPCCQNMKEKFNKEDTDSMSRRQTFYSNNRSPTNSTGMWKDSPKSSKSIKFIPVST

For the compound `Clc1ccc(-n2c(Cn3nccn3)nnc2C2CCN(c3ccccn3)CC2)cc1` [Example 17, 4-[4-(4-Chloro-phenyl)-5-[1,2,3]triazol-2-ylmethyl-4H-[1,2,4]triazol-3-yl]-3,4,5,6-tetrahydro-2H-[1,2′]bipyridinyl], the pKi was 9.33. For `Cc1cc(Cl)ccc1-n1c(C)nnc1C1CCN(c2ccccn2)CC1` [Example 9, 4-[4-(4-Chloro-2-methyl-phenyl)-5-methyl-4H-[1,2,4]triazol-3-yl]-3,4,5,6-tetrahydro-2H-[1,2′]bipyridinyl] the value was 8.48; for `Cc1cc(Cl)ccc1-n1c(Cn2nccn2)nnc1C1CCN(c2ccccn2)CC1` [Example 15, 4-[4-(4-Chloro-2-methyl-phenyl)-5-[1,2,3]triazol-2-ylmethyl-4H-[1,2,4]triazol-3-yl]-3,4,5,6-tetrahydro-2H-[1,2′]bipyridinyl], 9.07.

In general, pKi refers to the Ki on a negative log10 scale, so that one unit is a factor of ten. Read a low pKi as a large Ki.
